Assay results as given in patent publication US12129244B2, “Modulators of Mas-related G-protein receptor X2 and related products and methods” (Escient Pharmaceuticals, Inc., priority 2022, dated 2024).
pIC50: −log10 of the molar value.

What was measured:
Human LAD2 cells = test: Mast Cell Beta-Hexosaminidase Release Assay; type: cell-based; settings: 500 nM Cortistatin-14, read-out: MRGPRX2 Antagonist Activity
Experimental: Human LAD2 cells (NIH) were maintained in an incubator at 37° C. with 5% CO2 and cultured in StemPro-34 serum-free media (Gibco 10639011) supplemented with 2 mM L-glutamine, 100 U/ml penicillin, […] streptomycin and 100 ng/ml SCF (Invitrogen PEP0860), at a concentration of 2-5×10^5 cells/mL, with hemidepletion every 1-2 weeks.
Cells were transferred to SCF-Free medium at 2.5×10^5 cells/mL and kept in an incubator overnight. On the day of the assay, cells were washed twice in Assay Buffer (final concentrations 10 mM HEPES, 137 mM NaCl, 5.6 mM D-glucose, 2.7 mM KCl, 1 mM MgCl, 1.8 mM CalCl2, 0.4 mM Na2HPO4·7H2O, 0.04% BSA, pH=7.4) and plated in a 96-well v-bottom plate at 20,000 cells per well in 80 μL Assay Buffer. Antagonist compounds solubilized at 10 mM in DMSO were diluted in Assay Buffer to 10× final desired concentrations as a 10-point curve (10 μM final top concentration with 1:3 serial dilutions) and 10 μL added per well. Plates were then incubated for 1 hour at 37° C. Agonists were diluted in Assay Buffer to 10× desired concentrations and 10 μL of the appropriate agonist added to each well. The final concentration of Cortistatin-14 (Tocris 3374) used in antagonist assays was 500 nM. Final concentrations of DMSO were kept consistent across the plate. Plates were then incubated in a warm air oven for 30 minutes at 37° C., followed by centrifugation at 4° C. for 5 minutes at 450×g. 50 μL supernatant from each well was then transferred to a 96-well flat bottom plate containing 100 μL substrate solution per well (3.5 mg/mL p-Nitrophenyl-N-acetyl-β-D-glucosaminide (Sigma 487052) in Citrate Buffer containing a final concentration of 40 mM Citric Acid, 20 mM Na2HPO4·7H2O, pH=4.5). To the cell pellets left in the remaining assay buffer, 150 μL 0.1% Triton-X-100 was then added to each well, resuspended by pipetting up and down, and 50 μL cell lysates transferred to a second 96-well flat bottom plate containing 100 μL substrate solution per well. Plates containing transferred supernatant and cell lysates were then incubated in a warm air oven for 90 minutes at 37° C. After incubation, 50 μL of 400 mM Glycine buffer (pH 10.7) was added into each well and the plate was read on a Molecular Devices SpectraMax iD5 plate reader (absorbance at 405 nm with reference filter at 620 nm). After background subtraction, the percentage degranulation (percent beta-hexosaminidase release) was calculated as 100×(supernatant values)/(supernatant+lysate values), followed by analysis using GraphPad Prism software to calculate an IC50 value for each compound.
The activity ranges are denoted as follows: “+++++” denotes antagonist activity <100 nM; “++++” denotes antagonist activity between 100 and 500 nM; “+++” denotes activity between 501 and 1000 nM; “++” denotes activity between 1001 and 2500 nM; and “+” denotes activity >2500 nM.

[1] = Mouse Pharmacokinetics Studies (50 mg/kg oral gavage, plasma LC-MS/MS); type: in vivo; settings: Male C57BL/6 mice, non-fasted; for AUC(0-t) / Cmax / Tmax: mouse; for Tmax: read-out: PK: Tmax
Experimental: Compounds were formulated in 5% DMSO, 5% Solutol, and 90% PBS without Ca and Mg (pH 7.4) at a concentration of 5 mg/mL. Male C57BL/6 mice (n=3/compound) were administered a 50 mg/kg dose of each compound by oral gavage under a non-fasted condition. Blood samples were collected via the saphenous vein onto K2-EDTA at 0.25, 0.5, 1, 2, 4, 8 and 24 hours after dosing, and plasma was prepared and stored at −80° C. until analysis. Plasma sample preparation for analysis was done by protein precipitation using acetonitrile (including Verapamil as an internal standard) followed by centrifugation. Compound concentrations were determined in extracted plasma using LC-MS/MS relative to a 12-point standard curve covering the 1 to 4000 nM range. Non-compartmental analysis using Phoenix WinNonlin was used to estimate pharmacokinetic parameters including area under the curve, clearance, and half-life. The administered dose was confirmed by analysis of residual dosing material by UPLC-UV relative to a single point calibration sample.

human MRGPRX2 = target: T1, human MRGPRX2 (Homo sapiens, UniProt Q96LB1); test: MRGPRX2 activity: IP-One HTRF antagonist assay in CHO cells versus Cortistatin-14; type: cell-based; settings: CHO cells stably expressing human MRGPRX2; versus 0.3 uM Cortistatin-14 agonist; IP-1 HTRF
T1 construct: expressed in transfected cells
T1 sequence (Q96LB1 1-330): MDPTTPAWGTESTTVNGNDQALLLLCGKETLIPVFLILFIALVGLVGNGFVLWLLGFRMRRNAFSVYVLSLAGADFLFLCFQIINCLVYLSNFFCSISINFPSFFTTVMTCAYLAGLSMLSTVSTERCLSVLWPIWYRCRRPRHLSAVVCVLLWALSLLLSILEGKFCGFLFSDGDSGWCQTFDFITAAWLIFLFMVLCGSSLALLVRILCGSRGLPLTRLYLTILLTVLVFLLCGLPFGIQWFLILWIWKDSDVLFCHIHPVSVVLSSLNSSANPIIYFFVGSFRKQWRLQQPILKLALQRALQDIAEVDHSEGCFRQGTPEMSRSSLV
Experimental: CHO cells stably transfected to express human MRGPRX2 were maintained in an incubator at 37° C. with 5% CO2 and grown in F12 (HAM) media with 10% fetal bovine serum (FBS), 1% Glutamax, 1% penicillin/streptomycin, 800 μg/mL Geneticin (G418), and 300 μg/mL Hygromycin B.
Cells were plated in a 384-well assay plate at 20,000 cells per well in 12 μL of Opti-MEM and kept in an incubator overnight. On the day of the assay, compounds solubilized at 10 mM in DMSO were added as a 10-point curve (30 uM final top concentration with 1:3 serial dilutions) using a Tecan D300E digital dispenser. Agonists were diluted in assay buffer (final concentrations of 5.7 mM Tris-HCl, 43 mM NaCl, 50 mM LiCl, pH=8) and 2 μL of the agonist Cortistatin-14 (CPC Scientific, catalog CORT-002) are added to each well. Final concentrations of agonists were 0.3 μM Cortistatin. Final concentrations of DMSO were kept consistent across the plate. Plates were incubated in the dark for 1 h at 37° C. and then for 1 h at room temperature. IP-1 standards and HTRF detection reagents were added according to the IP-One-Gq Kit purchased from Cisbio (part number 62IPAPEJ) and incubated in the dark for 1 h at room temperature. The plate was read on a Molecular Devices SpectraMax iD5 plate reader. The HTRF ratio was calculated from the raw data and graphed using GraphPad Prism to calculate an IC50 value for each compound.
The activity ranges are denoted as follows: “+++++” denotes antagonist activity <100 nM; “++++” denotes antagonist activity between 100 and 500 nM; “+++” denotes activity between 501 and 1000 nM; “[…]” denotes activity between 1001 and 2500 nM; and “+” denotes activity >2500 nM

O=C(N[C@@H]1CCC[C@H](Nc2cc(C(F)(F)F)nc3ccc(Cl)cc23)C1)c1ccc(F)nc1 [4-411]
pIC50 (Human LAD2 cells): > 7.00

COc1ccc(C(=O)N[C@@H]2CCC[C@H](Nc3cc(C(F)(F)F)nc4ccc(F)cc34)C2)cc1 [Example 1-4]
AUC 0-24 [1]: 120 µM·h
AUC(0-t) [1]: 120 µM·h
Cmax [1]: 8.6 µM
Tmax [1]: 6.7 h

Nc1ccc(C(=O)N[C@@H]2CCC[C@H](Nc3cc(C(F)(F)F)nc4ccc(Cl)cc34)C2)cn1 [Example 3-19]
pIC50 (human MRGPRX2): > 7.00
AUC 0-24 [1]: 220 µM·h
AUC(0-t) [1]: 220 µM·h
Cmax [1]: 46 µM
Tmax [1]: 0.83 h

CCS(=O)(=O)Nc1cccc(C(=O)N[C@@H]2CCC[C@H](Nc3cc(C(F)(F)F)nc4ccc(Cl)cc34)C2)c1 [Example 4-241]
pIC50 (Human LAD2 cells): > 7.00

CC(=O)Nc1cccc(C(=O)N[C@@H]2CCC[C@H](Nc3cc(C(F)(F)F)nc4ccc(F)cc34)C2)c1 [Example 4-306]
pIC50 (Human LAD2 cells): > 7.00

CC(C)S(=O)(=O)Nc1ccc(F)c(C(=O)N[C@@H]2CCC[C@H](Nc3cc(C(F)(F)F)nc4ccc(F)cc34)C2)c1F [Example 4-318]
pIC50 (Human LAD2 cells): 6.00 to 6.30

CCn1cc(C(=O)N[C@@H]2CCC[C@H](Nc3cc(C(F)(F)F)nc4ccc(Cl)cc34)C2)cn1 [Example 4-366]
AUC 0-24 [1]: 290 µM·h
AUC(0-t) [1]: 290 µM·h
Cmax [1]: 44 µM
Tmax [1]: 1 h

O=C(N[C@@H]1CCC[C@H](Nc2cc(C(F)(F)F)nc3ccc(Cl)cc23)C1)c1cnn(C(F)F)c1 [Example 4-399]
AUC 0-24 [1]: 230 µM·h
AUC(0-t) [1]: 230 µM·h
Cmax [1]: 19 µM
Tmax [1]: 3.7 h

Cc1nn(C(C)C)cc1C(=O)N[C@@H]1CCC[C@H](Nc2cc(C(F)(F)F)nc3ccc(Cl)cc23)C1 [Example 4-402]
pIC50 (human MRGPRX2): > 7.00
AUC 0-24 [1]: 150 µM·h
AUC(0-t) [1]: 150 µM·h
Cmax [1]: 14 µM
Tmax [1]: 2 h

Cc1ccc(C(=O)N[C@@H]2CCC[C@H](Nc3cc(C(F)(F)F)nc4ccc(Cl)cc34)C2)cn1 [Example 4-403]
pIC50 (human MRGPRX2): > 7.00
AUC 0-24 [1]: 130 µM·h
AUC(0-t) [1]: 130 µM·h
Cmax [1]: 15 µM
Tmax [1]: 2.3 h

Nc1ncccc1C(=O)N[C@@H]1CCC[C@H](Nc2cc(C(F)(F)F)nc3ccc(Cl)cc23)C1 [Example 4-409]
pIC50 (human MRGPRX2): > 7.00
AUC 0-24 [1]: 280 µM·h
AUC(0-t) [1]: 280 µM·h
Cmax [1]: 25 µM
Tmax [1]: 2.7 h

O=C(N[C@@H]1CCC[C@H](Nc2cc(C(F)(F)F)nc3ccc(Cl)cc23)C1)c1c[nH]nc1C(F)F [Example 4-511]
pIC50 (human MRGPRX2): > 7.00

Cc1c(C(=O)N[C@@H]2CCC[C@H](Nc3cc(C(F)(F)F)nc4ccc(Cl)cc34)C2)ccn1CCF [Example 5-1]
pIC50 (human MRGPRX2): > 7.00

Cc1cc(C(=O)N[C@@H]2CCC[C@H](Nc3cc(C(F)(F)F)nc4ccc(Cl)cc34)C2)cn1CCF [Example 5-2]
pIC50 (Human LAD2 cells): > 7.00

N#CCn1cc(C(=O)N[C@@H]2CCC[C@H](Nc3cc(C(F)(F)F)nc4ccc(Cl)cc34)C2)c(Cl)n1 [Example 5-3]
pIC50 (Human LAD2 cells): > 7.00

Cc1c(C(=O)N[C@@H]2CCC[C@H](Nc3cc(C(F)(F)F)nc4ccc(Cl)cc34)C2)ccn1CC(F)F [Example 5-5]
pIC50 (human MRGPRX2): > 7.00

CC(C)(C)OC(=O)N1CCC[C@@H](n2cc(C(=O)N[C@@H]3CCC[C@H](Nc4cc(C(F)(F)F)nc5ccc(Cl)cc45)C3)cn2)C1 [Example 5-13]
pIC50 (human MRGPRX2): > 7.00

N#Cc1nn(CCF)cc1C(=O)N[C@@H]1CCC[C@H](Nc2cc(C(F)(F)F)nc3ccc(Cl)cc23)C1 [Example 5-31]
pIC50 (human MRGPRX2): > 7.00

O=C(N[C@@H]1CCC[C@H](Nc2cc(C(F)(F)F)nc3ccc(Cl)cc23)C1)N1CCCC1 [Example 8-3]
pIC50 (human MRGPRX2): > 7.00

Cn1cc2c(n1)CCN(C(=O)N[C@@H]1CCC[C@H](Nc3cc(C(F)(F)F)nc4ccc(Cl)cc34)C1)C2 [Example 8-16]
pIC50 (human MRGPRX2): > 7.00

Cc1c(C(=O)N[C@@H]2CCC[C@H](Nc3cc(C(F)(F)F)nc4ccc(Cl)cc34)C2)cnn1C1CCNCC1 [Example 19, N-((1R,3S)-3-((6-chloro-2-(trifluoromethyl)quinolin-4-yl)amino)cyclohexyl)-5-methyl-1-(piperidin-4-yl)-1H-pyrazole-4-carboxamide]
pIC50 (human MRGPRX2): > 7.00

CC(C)(C)OC(=O)N1CC[C@@H](n2cc(C(=O)N[C@@H]3CCC[C@H](Nc4cc(C(F)(F)F)nc5ccc(Cl)cc45)C3)cn2)C1 [Example 40, tert-butyl (R)-3-(4-(((1R,3S)-3-((6-chloro-2-(trifluoromethyl)quinolin-4-yl)amino)cyclohexyl)carbamoyl)-1H-pyrazol-1-yl)pyrrolidine-1-carboxylate]
pIC50 (human MRGPRX2): > 7.00

CC(C)C(=O)N1CCN(C(=O)N[C@@H]2CCC[C@H](Nc3cc(C(F)(F)F)nc4ccc(Cl)cc34)C2)CC1 [Example 44, N-((1R,3S)-3-((6-chloro-2-(trifluoromethyl)quinolin-4-yl)amino)cyclohexyl)-4-isobutyrylpiperazine-1-carboxamide]
pIC50 (Human LAD2 cells): > 7.00

CC1(F)CN(C(=O)N[C@@H]2CCC[C@H](Nc3cc(C(F)(F)F)nc4ccc(Cl)cc34)C2)C1 [Example 45, N-((1R,3S)-3-((6-chloro-2-(trifluoromethyl)quinolin-4-yl)amino)cyclohexyl)-3-fluoro-3-methylazetidine-1-carboxamide]
pIC50 (Human LAD2 cells): 6.30 to 7.00

Cc1nc2c(s1)CN(C(=O)N[C@@H]1CCC[C@H](Nc3cc(C(F)(F)F)nc4ccc(Cl)cc34)C1)CC2 [Example 46, N-((1R,3S)-3-((6-chloro-2-(trifluoromethyl)quinolin-4-yl)amino)cyclohexyl)-2-methyl-6,7-dihydrothiazolo[5,4-c]pyridine-5(4H)-carboxamide]
pIC50 (human MRGPRX2): > 7.00
